Assay results taken from patent publication US9012489B2, “Phenyl-3-aza-bicyclo[3.1.0]hex-3-yl-methanones and the use thereof as medicament” (Boehringer Ingelheim International GmbH, priority 2011, dated 2015).
pIC50: −log10 of the molar value.

Target: T1, GlyT1 transporter (Homo sapiens, UniProt P48067)
T1 construct: endogenously expressing the GlyT1 transporter; host or cells: SK-N-MC human neuroblastoma cells
T1 sequence (P48067 1-706): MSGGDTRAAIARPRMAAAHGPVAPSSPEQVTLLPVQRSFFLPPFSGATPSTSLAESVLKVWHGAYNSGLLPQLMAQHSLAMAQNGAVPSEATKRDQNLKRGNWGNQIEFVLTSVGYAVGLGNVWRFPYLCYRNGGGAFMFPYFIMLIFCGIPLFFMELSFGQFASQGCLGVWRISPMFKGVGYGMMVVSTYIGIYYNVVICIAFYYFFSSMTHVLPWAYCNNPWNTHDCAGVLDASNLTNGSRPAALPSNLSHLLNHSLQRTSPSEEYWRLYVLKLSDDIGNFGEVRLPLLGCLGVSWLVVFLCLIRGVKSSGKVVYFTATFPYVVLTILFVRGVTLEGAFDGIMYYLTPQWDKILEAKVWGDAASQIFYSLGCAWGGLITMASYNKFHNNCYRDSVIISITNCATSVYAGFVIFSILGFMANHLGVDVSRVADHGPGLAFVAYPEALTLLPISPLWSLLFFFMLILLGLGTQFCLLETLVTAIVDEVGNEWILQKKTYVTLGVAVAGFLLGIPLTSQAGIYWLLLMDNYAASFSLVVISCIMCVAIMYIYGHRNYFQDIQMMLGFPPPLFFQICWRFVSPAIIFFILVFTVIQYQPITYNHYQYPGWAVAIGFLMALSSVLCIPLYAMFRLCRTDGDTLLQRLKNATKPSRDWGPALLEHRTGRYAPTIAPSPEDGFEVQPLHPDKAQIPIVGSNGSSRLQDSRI
Assay: GlyT1 assay: 3H-glycine uptake into SK-N-MC cells (Cytostar-T format)
Assay type: cell-based
Conditions: glycine uptake in human SK-N-MC cells endogenously expressing GlyT1; 500 nM glycine, 1% DMSO, signal recorded over 60 min
Text: Cells expressing either endogenously the GlyT1 transporter like JAR cells (human placental choriocarcinoma cells; e.g. WO 2008/002583) or SK-N-MC cells (human neuroblastoma cells; Depoortere et al., 2005. Neuropsychopharmacology 30:1963-1985) or primary neurons or cells which have been transfected with a plasmid encoding the cDNA of a functional GlyT1 transporter and stably or transiently express GlyT1 (e.g. WO 2006/08200) can be used to monitor glycine uptake in cells. Different protocols for determination of the glycine uptake into the cells described above can be applied in order to identify and rank compounds which interfere with glycine uptake in the selected cell.
Compounds outlined in the examples below were characterized using human SK-N-MC cells (ATCC number HTB-10) endogenously expressing the GlyT1 transporter which is responsible for the uptake of glycine into these cells and the uptake of glycine into these cells is monitored using the Cytostar-T assay format (GE Healthcare, RPNQ0162) which is based on the radioactive glycine taken up by the cells and brought into proximity with the scintillant contained within the base of the plate. The radioactive decay is converted to a light signal based on the integration of the scintillation matrix into the assay plate. The uptake is recorded as kinetic and the slope of the measured counts over time is used to calculate IC50.
In detail, SK-N-MC cells are seeded into 96-well Cytostar-T assay plates at a density of 200,000 cells/well and grown for 16-18 hours to confluence in growth medium as recommended by ATCC. Before starting the assay, cells are washed once with HBSS (Hank's buffered salt solution; Sigma, H8264) cont. 5 mM alanine (referred in here as HBSS/Ala) and afterwards the following reagents are added: • 1. 80 μl/well HBSS/Ala • 2. 20 μl/well of HBSS/Ala containing 6× the concentration of compound in 6% DMSO • 3. approx. 5-10 min incubation • 4. 20 μl/well 3 μM glycine (^3H-glycine (Perkin Elmer, NET004001MC, specific activity: 52 Ci/mmol; diluted 1:1 with unlabelled glycine) in HBSS/Ala.
In the final assay, glycine concentration is 500 nM (250 nM derived from the ^3H-glycine Perkin Elmer, 250 nM unlabelled glycine), DMSO concentration is 1%.
The assay plate is immediately after addition of the ^3H-glycine placed into a Micro-Beta Counter (Perkin Elmer) and the signal is recorded over 60 min.
To calculate uptake, the slope in the linear range of the kinetics is determined using GraphPadPrism and for the different slopes at the selected concentrations IC50 are calculated by curve fitting using the software GraphPadPrism.
Maximal glycine uptake in every experiment is determined by incubation of SK-N-MC cells with substrate but without inhibitor. Unspecific uptake of glycine by the cells is determined by incubating the cells with substrate and a reference GlyT1 inhibitor e.g. 10 μM RG-1678 (Pinard et al., 2010, J. Med. Chem. 53(12):4603-14).
Compounds are diluted from 10 mM stocks and in general, for IC50 determination 8 compound concentrations are used.

pIC50 | SMILES
8.05 | C[C@H](Oc1ccc(S(C)(=O)=O)cc1C(=O)N1CC2CC2(c2noc(C3CC(F)(F)C3)n2)C1)C(F)(F)F (mixture of isomers) [Example 13, {1-[5-(3,3-Difluoro-cyclobutyl)-[1,2,4]oxadiazol-3-yl]-3-aza-bicyclo[3.1.0]hex-3-yl}-[5-methanesulfonyl-2-(2,2,2-trifluoro-1-methyl-ethoxy)-phenyl]-methanone]
8.30 | C[C@H](Oc1ccc(S(C)(=O)=O)cc1C(=O)N1CC2CC2(c2csc(C(F)(F)F)n2)C1)C(F)(F)F (single isomer, unassigned) [Example 27, [5-Methanesulfonyl-2-(2,2,2-trifluoro-1-methyl-ethoxy)-phenyl]-[1-(2-trifluoromethyl-thiazol-4-yl)-3-aza-bicyclo[3.1.0]hex-3-yl]-methanone]
8.00 | C[C@H](Oc1ccc(S(C)(=O)=O)cc1C(=O)N1CC2CC2(c2noc(C3(C)COC3)n2)C1)C(F)(F)F (mixture of isomers) [Example 62, [5-Methanesulfonyl-2-(2,2,2-trifluoro-1-methyl-ethoxy)phenyl]-{1-[5-(3-methyl-oxetan-3-yl)-[1,2,4]oxadiazol-3-yl]-3-aza-bicyclo[3.1.0]hex-3-yl}-methanone]
7.57 | CC(C)Oc1ccc(S(C)(=O)=O)cc1C(=O)N1CC2CC2(c2noc(C(F)(F)F)n2)C1 (racemic) [Example 96, (2-Isopropoxy-5-methanesulfonyl-phenyl)-[1-(5-trifluoromethyl-[1,2,4]oxadiazol-3-yl)-3-aza-bicyclo[3.1.0]hex-3-yl]-methanone]
6.43 | C[C@H](Oc1ccc(S(C)(=O)=O)cc1C(=O)N1CC2CC2(c2noc(C3CC(F)(F)C3)n2)C1)C(F)(F)F (single isomer, unassigned) [Example 60]
8.40 | C[C@@H](Oc1ccc(S(C)(=O)=O)cc1C(=O)N1CC2CC2(c2noc(C3CC3(F)F)n2)C1)C(F)(F)F (mixture of isomers) [Example 64, {1-[5-(2,2-Difluoro-cyclopropyl)-[1,2,4]oxadiazol-3-yl]-3-aza-bicyclo[3.1.0]hex-3-yl}-[5-methanesulfonyl-2-(2,2,2-trifluoro-1-methyl-ethoxy)-phenyl]-methanone]
8.15 | CCS(=O)(=O)c1ccc(O[C@@H](C)C(F)(F)F)c(C(=O)N2CC3CC3(c3cc(C(F)(F)F)on3)C2)c1 (single isomer, unassigned) [Example 103, [5-Ethanesulfonyl-2-(2,2,2-trifluoro-1-methyl-ethoxy)-phenyl]-[1-(5-trifluoromethyl-isoxazol-3-yl)-3-aza-bicyclo[3.1.0]hex-3-yl]-methanone]

The next lines start with the compound.

SMILES | pIC50
C[C@@H](Oc1ccc(S(C)(=O)=O)cc1C(=O)N1CC2CC2(c2csc(C(F)(F)F)n2)C1)C(F)(F)F (mixture of isomers) [Example 29, [5-Methanesulfonyl-2-(2,2,2-trifluoro-1-methyl-ethoxy)-phenyl]-[1-(2-trifluoromethyl-thiazol-4-yl)-3-aza-bicyclo[3.1.0]hex-3-yl]-methanone] | 7.96
C[C@H](Oc1ccc(S(C)(=O)=O)cc1C(=O)N1CC2CC2(c2nnc(C3(C(F)(F)F)CC3)o2)C1)C(F)(F)F (single isomer, unassigned) [Example 153, [5-Methanesulfonyl-2-(2,2,2-trifluoro-1-methyl-ethoxy)-phenyl]-{1-[5-(1-trifluoromethyl-cyclopropyl)-[1,3,4]oxadiazol-2-yl]-3-aza-bicyclo[3.1.0]hex-3-yl}-methanone] | 5.92
CC1(C)Cc2cc(S(C)(=O)=O)cc(C(=O)N3CC4CC4(c4noc(C(F)(F)F)n4)C3)c2O1 (racemic) [Example 99, (5-Methanesulfonyl-2,2-dimethyl-2,3-dihydro-benzofuran-7-yl)-[1-(5-trifluoromethyl-[1,2,4]oxadiazol-3-yl)-3-aza-bicyclo[3.1.0]-3-yl]-methanone] | 6.54
Cc1nc(C23CC2CN(C(=O)c2cc(S(C)(=O)=O)ccc2O[C@@H](C)C(F)(F)F)C3)no1 (single isomer, unassigned) [Example 7, [5-Methanesulfonyl-2-(2,2,2-trifluoro-1-methyl-ethoxy)-phenyl]-[1-(5-methyl-[1,2,4]oxadiazol-3-yl)-3-aza-bicyclo[3.1.0]hex-3-yl]-methanone] | 8.40
CCS(=O)(=O)c1ccc(O[C@@H](C)C(F)(F)F)c(C(=O)N2CC3CC3(c3nccc(C(F)(F)F)n3)C2)c1 (single isomer, unassigned) [Example 75, [5-Ethanesulfonyl-2-(2,2,2-trifluoro-1-methyl-ethoxy)-phenyl]-[1-(4-trifluoromethyl-pyrimidin-2-yl)-3-aza-bicyclo[3.1.0]hex-3-yl]-methanone] | 6.96
CCS(=O)(=O)c1ccc(O[C@H](C)C(F)(F)F)c(C(=O)N2CC3CC3(c3nccc(C(F)(F)F)n3)C2)c1 (single isomer, unassigned) [Example 78, [5-Ethanesulfonyl-2-(2,2,2-trifluoro-1-methyl-ethoxy)-phenyl]-[1-(4-trifluoromethyl-pyrimidin-2-yl)-3-aza-bicyclo[3.1.0]hex-3-yl]-methanone] | 8.15
C[C@H](Oc1ccc(S(C)(=O)=O)cc1C(=O)N1CC2CC2(c2nocc2C(F)(F)F)C1)C(F)(F)F (mixture of isomers) [Example 109, [5-Methanesulfonyl-2-(2,2,2-trifluoro-1-methyl-ethoxy)-phenyl]-[1-(4-trifluoromethyl-isoxazol-3-yl)-3-aza-bicyclo[3.1.0]hex-3-yl]-methanone] | 7.35
Cc1nc(C23CC2CN(C(=O)c2cc(S(C)(=O)=O)ccc2O[C@@H](C)C(F)(F)F)C3)no1 (single isomer, unassigned) [Example 8, [5-Methanesulfonyl-2-(2,2,2-trifluoro-1-methyl-ethoxy)-phenyl]-[1-(5-methyl-[1,2,4]oxadiazol-3-yl)-3-aza-bicyclo[3.1.0]hex-3-yl]-methanone] | 6.32
C[C@@H](Oc1ccc(S(C)(=O)=O)cc1C(=O)N1CC2CC2(c2nc(C(F)(F)F)no2)C1)C(F)(F)F (single isomer, unassigned) [Example 87, [5-Methanesulfonyl-2-(2,2,2-trifluoro-1-methyl-ethoxy)-phenyl]-[1-(3-trifluoromethyl-[1,2,4]oxadiazol-5-yl)-3-aza-bicyclo[3.1.0]hex-3-yl]-methanone] | 5.63
C[C@H](Oc1ccc(S(C)(=O)=O)cc1C(=O)N1CC2CC2(c2noc(C(F)(F)F)n2)C1)C(F)(F)F (single isomer, unassigned) [Example 3, [5-Methanesulfonyl-2-(2,2,2-trifluoro-1-methyl-ethoxy)-phenyl]-[1-(5-trifluoromethyl-[1,2,4]oxadiazol-3-yl)-3-aza-bicyclo[3.1.0]hex-3-yl]-methanone] | 5.99
C[C@@H](Oc1ccc(S(C)(=O)=O)cc1C(=O)N1CC2CC2(c2nnc(C(F)(F)F)o2)C1)C(F)(F)F (single isomer, unassigned) [Example 124, [5-Methanesulfonyl-2-(2,2,2-trifluoro-1-methyl-ethoxy)-phenyl]-[1-(5-trifluoromethyl-[1,3,4]oxadiazol-2-yl)-3-aza-bicyclo[3.1.0]hex-3-yl]-methanone] | 6.30
